Assay results taken from publication PMC9959265, “Permethrin as a Potential Furin Inhibitor through a Novel Non-Competitive Allosteric Inhibition” (Molecules, 2023).
pIC50: −log10 of the molar value.

What was measured:
trypsin = assay: Inhibition effect on trypsin (control protease); assay type: biochemical; conditions: Figure S1E
furin [1] = molecular target: T1, furin (Homo sapiens, UniProt P09958)
Procedure: For the measurement of enzymatic kinetics and inhibition kinetics, the substrate concentration gradients were set to 0 μM, 2 μM, 5 μM, 10 μM, 20 μM, 40 μM, 60 μM, 80 μM, 100 μM, 120 μM, and the compound concentration gradients to 0 μM, 25 μM, 50 μM, 100 μM. Furin was added to 100 mM HEPES assay system buffer (pH 6.0, containing 0.5% Triton X-100 and 5 mM CaCl2), followed by different concentrations of the compounds to be tested, preincubated at 37 °C for 5 min. Different concentrations of the substrate were added; the sample was incubated at 37 °C for 35 min, and quenched with 1% formic acid. The initial rate of the enzymatic reaction of furin was tested and the curve was plotted.

HeLa cells = assay: Cellular cytotoxicity (CCK8), HeLa; assay type: cell-based; conditions: HeLa (high furin expression), 24 or 48 h
Procedure: (§1) Furin is highly expressed in liver cancer cells and has specific effects on hepatocellular carcinoma. Therefore, human hepatocellular carcinoma cells Hep-G2 were selected as experimental cells, cervical carcinoma cells HeLa with similar furin expression in Hep-G2 were selected as control, and human permanent hepatocytes L-02 were selected as negative control. DMEM was used for HeLa, and 1640 medium was used for Hep-G2 and L-02. After incubation for 24 h with 100 μL complete medium in 96-well plates with 8000 cells per well, the medium was aspirated, 100 μL serum-free medium containing a concentration gradient of the compound was added and the samples were incubated. After 24 or 48 h the drug-containing medium was aspirated and 100 μL medium solution containing 10% CCK8 was added, subsequently, the absorbance was measured at 450 nm using a microplate reader after 1 h of incubation.

furin [2] = molecular target: T1, furin; assay: Furin activity / inhibitor screening assay with Boc-R-V-R-R-AMC substrate; assay type: biochemical; set-up: His tag; host or cells: E. coli BL21 (DE3)
Procedure: Boc-Arg-Val-Arg-Arg-AMC (Boc-R-V-R-R-AMC) was used as a substrate for the detection of furin. It carries an AMC ([…]) moiety that fluoresces at an excitation wavelength of 370 nm and an emission wavelength of 460 nm.
The reaction was then incubated for 90 min at 37 °C, supplemented with 40 μM substrate, quenched using 1% formic acid and the enzyme activity was monitored using a Thermo Scientific Varioskan Flash Multi-Mode Microplate Reader.

Hep-G2 cells = assay: Cellular cytotoxicity (CCK8), Hep-G2; assay type: cell-based, human; conditions: Hep-G2 (high furin expression), 24 or 48 h
Procedure: as §1

L-02 cells = assay: Cellular cytotoxicity (CCK8), L-02; assay type: cell-based, human; conditions: L-02 normal liver cells (low furin expression), 24 or 48 h
Procedure: as §1

T1 sequence (P09958 108-574 limits assumed): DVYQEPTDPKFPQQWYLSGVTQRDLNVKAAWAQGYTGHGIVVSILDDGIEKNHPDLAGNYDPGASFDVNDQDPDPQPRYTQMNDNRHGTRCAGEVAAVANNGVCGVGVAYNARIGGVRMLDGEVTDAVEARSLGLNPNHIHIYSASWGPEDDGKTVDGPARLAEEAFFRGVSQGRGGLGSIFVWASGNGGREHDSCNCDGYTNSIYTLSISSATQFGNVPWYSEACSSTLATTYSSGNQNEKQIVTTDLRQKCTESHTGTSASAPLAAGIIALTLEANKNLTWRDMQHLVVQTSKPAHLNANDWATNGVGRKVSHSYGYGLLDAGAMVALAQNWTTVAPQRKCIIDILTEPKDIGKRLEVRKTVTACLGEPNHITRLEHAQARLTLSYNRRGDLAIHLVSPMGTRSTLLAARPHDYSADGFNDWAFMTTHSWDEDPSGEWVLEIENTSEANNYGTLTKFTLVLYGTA

For `CC1(C)C(C=C(Cl)Cl)C1C(=O)OCc1cccc(Oc2ccccc2)c1` (stereo not drawn) [YJJ-B0887, permethrin], the “inhibitory activity against trypsin” value (trypsin) was “to neither enzyme, permethrin has inhibitory activity”, the mode of inhibition (furin [1]) was “non-competitive inhibitor” and the “Km of furin on addition of inhibitor” value (furin [1]; permethrin 0, 25, 50, 100 μM) was “does not change”. For the same compound, the “maximum reaction rate of furin on addition of inhibitor” value (furin [1]; permethrin 0, 25, 50, 100 μM) was “decreases”, the cytotoxic effect (HeLa cells) was “higher cytotoxic effect” and the inhibition at 50 µM (furin [2]; 50 μM compound, read-out: Inhibition Rate (50 μM)) was 55.9%. For the same compound, the pIC50 (furin [2]; furin, 40 μM Boc-R-V-R-R-AMC, pH 6.0, 37 °C) was 4.41, the cytotoxic effect (Hep-G2 cells) was “stronger cytotoxic effect” and the cytotoxic effect (L-02 cells) was “much weaker”.
